Source: patent publication US20100063074A1, “Cancer Treatment Method” (priority 2004, published 2010)
Where two headings read alike, the source gives them in different places.

Tests used:
[1] = test system: pancreatic cancer with distant metastases; conditions: pancreatic tumors with distant metastases; cited from earlier work
[2] = test system: EGFR and erbB2 kinases; conditions: Rusnak et al., 2001b; Xia et al., 2002; cited from earlier work
[3] = test system: LNCaP; assay: Cell growth inhibition IC50, LNCaP; conditions: Homo sapiens, read-out: Growth Inhibition (IC50 μM)
Procedure: (§1) The human bladder cell lines, HT-1197, HT-1376 and T24, and the ovarian cell line, SKOV3, were obtained from the American Type Culture Collection. The cells were maintained in tissue culture flasks in RPMI 1640 (Invitrogen # 22400-089) with 10% fetal bovine serum (FBS, HyClone # SH30071.03) and were incubated at 37° Celsius in an atmosphere of 5% CO2, until plating for IC50 determination. For IC50 determination, cells were plated in the appropriate medium at 5,000 cells per well in a 96-well tissue culture dish and returned to the incubator overnight. […] Final concentrations ranged from 30 micromolar to 0.00152 micromolar. After three days of compound exposure, the growth medium was removed by aspiration. Cell biomass was estimated by staining cells in 0.1 ml per well of methylene blue (Sigma #M9140, 0.5% in 50:50, ethanol:water), followed by incubation at room temperature for at least 30 minutes. Stain was aspirated and the plates rinsed by immersion in deionized water, followed by air drying. Stain was released from cells by the addition of 0.1 ml of solubilization solution (1.0% N-lauryl sarcosine, Sodium salt, Sigma #L5121 in PBS). Plates were incubated at room temperature for 40 minutes. Absorbance was read at 620 nm in a Tecan Spectra micro-plate reader. Percent inhibition of cell growth was calculated relative to untreated control wells. […]

[4] = test system: SW620; assay: Cell growth inhibition IC50, SW620; conditions: Homo sapiens, SW-620, read-out: Growth Inhibition (IC50 μM)
[5] = test system: locally advanced or metastatic TCC of the bladder
[6] = test system: NCI-H322; assay: Cell growth inhibition IC50, NCI-H322; type: cell-based; conditions: NSCLC
Procedure: (§2) The cells were maintained in tissue culture flasks in RPMI 1640 (Invitrogen # 22400-089) with 10% fetal bovine serum (FBS, HyClone # SH30071.03) and were incubated at 37° Celsius in an atmosphere of 5% CO2, until plating for IC50 determination. For IC50 determination, cells were plated in the appropriate medium at 5,000 cells per well in a 96-well tissue culture dish and returned to the incubator overnight. […] Final concentrations ranged from 30 micromolar to 0.00152 micromolar. After three days of compound exposure, the growth medium was removed by aspiration. Cell biomass was estimated by staining cells in 0.1 ml per well of methylene blue (Sigma #M9140, 0.5% in 50:50, ethanol:water), followed by incubation at room temperature for at least 30 minutes. Stain was aspirated and the plates rinsed by immersion in deionized water, followed by air drying. Stain was released from cells by the addition of 0.1 ml of solubilization solution (1.0% N-lauryl sarcosine, Sodium salt, Sigma #L5121 in PBS). Plates were incubated at room temperature for 40 minutes. Absorbance was read at 620 nm in a Tecan Spectra micro-plate reader. Percent inhibition of cell growth was calculated relative to untreated control wells. IC50 values were interpolated using the method of Levenberg and Marquardt (Mager, 1972) and the equation: y=Vmax*[1−(x^n/(K^n+x^n))], where “K” is equal to IC50. […]

[7] = test system: 786O; assay: Cell growth inhibition IC50, 786O; conditions: Homo sapiens, 786-0, read-out: Growth Inhibition (IC50 μM)
Procedure: as §1

[8] = test system: SW480; assay: Cell growth inhibition IC50, SW480; conditions: Homo sapiens, SW480, read-out: Growth Inhibition (IC50 μM)
Procedure: as §1

[9] = test system: CaLu3; assay: Cell growth inhibition IC50, CaLu3; conditions: Homo sapiens, Calu-3, read-out: Growth Inhibition (IC50 μM)
Procedure: as §1

[10] = test system: BxPC3; assay: Cell growth inhibition IC50, BxPC3; conditions: Homo sapiens, BXPC-3, read-out: Growth Inhibition (IC50 μM)
Procedure: as §2

[11] = test system: HMEC; assay: Cell growth inhibition IC50, HMEC; conditions: Homo sapiens, read-out: Growth Inhibition (IC50 μM)
Procedure: as §2

[12] = test system: SKOV3; assay: Cell growth inhibition IC50 (methylene blue), SKOV3; conditions: Homo sapiens, SK-OV-3, 72 h, read-out: Growth Inhibition (IC50 μM)
Procedure: as §1

[13] = test system: NCI-H727; assay: Cell growth inhibition IC50, NCI-H727; type: cell-based; conditions: Homo sapiens, Lung carcinoid bronchus
Procedure: as §2

[14] = test system: SKMEL28; assay: Cell growth inhibition IC50, SKMEL28; type: cell-based; conditions: Homo sapiens, SK-MEL-28, Melanoma
Procedure: as §2

[15] = test system: HCT 116; assay: Cell growth inhibition IC50, HCT 116; conditions: Homo sapiens, HCT-116, read-out: Growth Inhibition (IC50 μM)
Procedure: as §2

[16] = test system: T24; assay: Cell growth inhibition IC50 (methylene blue), T24; conditions: Homo sapiens, T-24, 72 h, read-out: Growth Inhibition (IC50 μM)
Procedure: as §1

[17] = test system: NCI-H358; assay: Cell growth inhibition IC50, NCI-H358; conditions: Homo sapiens, NCI-H358, read-out: Growth Inhibition (IC50 μM)
Procedure: as §2

[18] = test system: H1197; assay: Cell growth inhibition IC50 (methylene blue), H1197; conditions: Homo sapiens, 72 h, read-out: Growth Inhibition (IC50 μM)
Procedure: The cells were maintained in tissue culture flasks in RPMI 1640 (Invitrogen # 22400-089) with 10% fetal bovine serum (FBS, HyClone # SH30071.03) and were incubated at 37° Celsius in an atmosphere of 5% CO2, until plating for IC50 determination. For IC50 determination, cells were plated in the appropriate medium at 5,000 cells per well in a 96-well tissue culture dish and returned to the incubator overnight. […] Final concentrations ranged from 30 micromolar to 0.00152 micromolar. After three days of compound exposure, the growth medium was removed by aspiration. Cell biomass was estimated by staining cells in 0.1 ml per well of methylene blue (Sigma #M9140, 0.5% in 50:50, ethanol:water), followed by incubation at room temperature for at least 30 minutes. Stain was aspirated and the plates rinsed by immersion in deionized water, followed by air drying. Stain was released from cells by the addition of 0.1 ml of solubilization solution (1.0% N-lauryl sarcosine, Sodium salt, Sigma #L5121 in PBS). Plates were incubated at room temperature for 40 minutes. Absorbance was read at 620 nm in a Tecan Spectra micro-plate reader. Percent inhibition of cell growth was calculated relative to untreated control wells. IC50 values were interpolated using the method of Levenberg and Marquardt (Mager, 1972) and the equation: y=Vmax*[1−(x^n/(K^n+x^n))], where “K” is equal to IC50.

[19] = test system: Calu1; assay: Cell growth inhibition IC50, Calu1; conditions: Homo sapiens, Calu-1, read-out: Growth Inhibition (IC50 μM)
Procedure: as §2

[20] = test system: A549; assay: Cell growth inhibition IC50, A549; conditions: Homo sapiens, A549, read-out: Growth Inhibition (IC50 μM)
Procedure: as §1

[21] = test system: solid tumors; conditions: for time remained on lapatinib, SD patient: progressing on previous therapy
[22] = test system: NCI-H747; assay: Cell growth inhibition IC50, NCI-H747; conditions: Homo sapiens, NCI-H747, read-out: Growth Inhibition (IC50 μM)
Procedure: as §2

[23] = test system: HT29; assay: Cell growth inhibition IC50, HT29; conditions: Homo sapiens, HT-29, read-out: Growth Inhibition (IC50 μM)
[24] = test system: H1376; assay: Cell growth inhibition IC50 (methylene blue), H1376; conditions: Homo sapiens, 72 h, read-out: Growth Inhibition (IC50 μM)
Procedure: as §1

[25] = test system: PC3; assay: Cell growth inhibition IC50, PC3; conditions: Homo sapiens, PC-3, read-out: Growth Inhibition (IC50 μM)
Procedure: as §1

[26] = test system: RKO; assay: Cell growth inhibition IC50, RKO; type: cell-based; conditions: Homo sapiens, Colorectal carcinoma
Procedure: as §2

[27] = test system: Lovo; assay: Cell growth inhibition IC50, Lovo; type: cell-based; conditions: Homo sapiens, Colorectal carcinoma
Procedure: as §1

[28] = test system: NCI-H460; assay: Cell growth inhibition IC50, NCI-H460; type: cell-based; conditions: Homo sapiens, Lung Carcinoma
Procedure: as §1

[29] = test system: locally advanced or metastatic transitional cell carcinoma of the urothelial tract
Procedure: Safety and efficacy assessments (independent review) were carried out at 4 and 8-week intervals respectively. Patients were also assessed at withdrawal, and followed every 2 months until death.

[30] = test system: H16 N2 (Transfected erbB2); assay: Cell growth inhibition IC50, H16 N2; conditions: read-out: Growth Inhibition (IC50 μM)
Procedure: as §1

[31] = test system: DLD-1; assay: Cell growth inhibition IC50, DLD-1; conditions: Homo sapiens, DLD-1, read-out: Growth Inhibition (IC50 μM)
Procedure: as §2

[32] = test system: H157; assay: Cell growth inhibition IC50, H157; type: cell-based; conditions: Homo sapiens, NCI-H157, Lung carcinoma
Procedure: as §2

[33] = test system: A431; assay: Cell growth inhibition IC50, A431; conditions: Homo sapiens, A-431, read-out: Growth Inhibition (IC50 μM)
Procedure: as §1

[34] = test system: Colo 205; assay: Cell growth inhibition IC50, Colo 205; conditions: Homo sapiens, COLO 205, read-out: Growth Inhibition (IC50 μM)
[35] = test system: SW837; assay: Cell growth inhibition IC50, SW837; conditions: Homo sapiens, SW837, read-out: Growth Inhibition (IC50 μM)
[36] = test system: LS174T; assay: Cell growth inhibition IC50, LS174T; type: cell-based; conditions: Homo sapiens, Colon adenocarcinoma
Procedure: as §2

[37] = test system: HFF; assay: Cell growth inhibition IC50, HFF; conditions: Homo sapiens, read-out: Growth Inhibition (IC50 μM)
Procedure: as §1

[38] = test system: A427; assay: Cell growth inhibition IC50, A427; type: cell-based; conditions: Homo sapiens, A-427, Lung Carcinoma
Procedure: as §1

[39] = test system: NCI-H2009; assay: Cell growth inhibition IC50, NCI-H2009; conditions: Homo sapiens, NCI-H2009, read-out: Growth Inhibition (IC50 μM)
Procedure: as §2

[40] = 1250 mg daily oral, 59 patients, investigator reported
[41] = Head and Neck, 9 patients, only patients receiving lapatinib more than 4 months
[42] = QD administration, heavily pre-treated population
[43] = 1250 mg once daily, interim analysis of 30 patients

In the case of O=c1[nH]cc(F)c(=O)[nH]1 [FU, fluorouracil], the “clinical benefit response (cancer-related symptoms)” value [1] is listed as 4.8% and the overall survival [1] is listed as 4.4 months.
For CS(=O)(=O)CCNCc1ccc(-c2ccc3ncnc(Nc4ccc(OCc5cccc(F)c5)c(Cl)c4)c3c2)o1 [GW572016, N-{3-chloro-4-[(3-fluorobenzyl)oxy]phenyl}-6-[5-({[2-(methanesulphonyl)ethyl]amino}methyl)-2-furyl]-4-quinazolinamine], the “kinase inhibition in human xenograft studies” value [2] is given as “dose-dependent kinase inhibition”.
For CS(=O)(=O)CCNCc1ccc(-c2ccc3ncnc(Nc4ccc(OCc5cccc(F)c5)c(Cl)c4)c3c2)o1.Cc1ccc(S(=O)(=O)O)cc1 [GW572016F, N-{3-Chloro-4-[(3-fluorobenzyl)oxy]phenyl}-6-[5-({[2-(methanesulphonyl)ethyl]amino}methyl)-2-furyl]-4-quinazolinamine ditosylate monohydrate], the IC50 [3] was 4.69 µM, the IC50 [4] was 6.75 µM and the “patients with asymptomatic, Grade 2 decrease in cardiac ejection fraction” value ([5]; 1250 mg daily) was “One”. The “tolerability (in words)” value ([5]; 1250 mg daily) was “well-tolerated”, the “PR, independent radiologic review” value ([5]; 1250 mg daily oral, 59 patients, RECIST) was 2% and the “partial responses (PR), investigators” value [5, 40] was 3%. For the same compound, the “stable disease (SD), investigators” value [5, 40] was 20%, the “Grade 3/4 AEs: diarrhea” value ([5]; 1250 mg daily, Grade 3/4) was 3% and the “Grade 3/4 AEs: vomiting” value ([5]; 1250 mg daily, Grade 3/4) was 7%. For the same compound, the “Adverse events: asthenia” value ([5]; 1250 mg daily, all grades) was 12%, the “Adverse events: diarrhea” value ([5]; 1250 mg daily, all grades) was 39% and the “Adverse events: fatigue” value ([5]; 1250 mg daily, all grades) was 10%. For the same compound, the “Adverse events: nausea” value ([5]; 1250 mg daily, all grades) was 27%, the “Adverse events: rash” value ([5]; 1250 mg daily, all grades) was 32% and the “Adverse events: vomiting” value ([5]; 1250 mg daily, all grades) was 22%. For the same compound, the “median TTP” value ([5]; 95% CI 8.00, 11.29) was 8.6 weeks, the median overall survival ([5]; 95% CI 13.14, 30.29) was 17.9 weeks and the “clinical benefit (CR+PR+SD≧16 weeks), independent review” value ([5]; assessed by independent review) was 12%. For the same compound, the “clinical benefit (CR+PR+SD≧16 weeks), investigator” value ([5]; assessed by investigator) was 14%, the patients with cytoreduction ([5]; at week 8) was 10 patients and the patients with cytostasis ([5]; at week 8) was 4 patients. The “patients with tumor growth up to 20%” value ([5]; at week 8) was 10 patients, the “patients with durable SD lasting 6 months” value ([5]; independent review) was “three” and the “patients with durable SD lasting 4 months” value ([5]; investigator review) was “six”. The “time on study of one patient who remains on study” value ([5]; one patient) was greater than 56 weeks, the “activity (in words)” value ([5]; relapsed, advanced or metastatic TCC of the bladder) was “exhibits monotherapy activity” and the IC50 [6] was 0.92 µM. The IC50 [7] was 1.82 µM, the IC50 [8] was 6.86 µM and the IC50 [9] was 0.057 µM. For the same compound, the IC50 [10] was 1.41 µM, the IC50 [11] was 1.34 µM and the IC50 [12] was 1.25 µM. For the same compound, the IC50 [13] was 7.59 µM, the IC50 [14] was 5.9 µM and the IC50 [15] was 5.87 µM. The IC50 [16] was 8.22 µM, the IC50 [17] was 0.27 µM and the IC50 [18] was 7.78 µM. The IC50 [19] was 5.51 µM, the IC50 [20] was 4.98 µM and the “median duration of SD” value ([21]; 22 SD pts) was 4 mos. The interstitial pneumonitis ([21]; 81 patients treated) was “no cases”, the “time remained on lapatinib, SD patient” value ([21]; AUP metastatic to lung) was no less than 8 mos and the “Clinical Response, SD (patients)” value ([21]; AUP, 6 patients, only patients receiving lapatinib more than 4 months) was “SD = 1”. The “Clinical Response, SD (patients)” value ([21]; Breast, 6 patients, only patients receiving lapatinib more than 4 months) was “SD = 2”, the “Clinical Response, SD (patients)” value ([21]; Cervical, 2 patients, only patients receiving lapatinib more than 4 months) was “SD = 1” and the “Clinical Response, SD (patients)” value ([21]; Colorectal, 27 patients, only patients receiving lapatinib more than 4 months) was “SD = 3”. The “Clinical Response, CR (patients)” value [21, 41] was 1, the “Clinical Response, SD (patients)” value [21, 41] was 3 and the “Clinical Response, SD (patients)” value ([21]; Mesothelioma, 3 patients, only patients receiving lapatinib more than 4 months) was “SD = 1”. The “Clinical Response, SD (patients)” value ([21]; NSCLC, 7 patients, only patients receiving lapatinib more than 4 months) was “SD = 3”, the “clinical activity (in words)” value [21, 42] was “evidence of clinical activity” and the “tolerability (in words)” value [21, 42] was “well tolerated”. The “Clinical Response, SD (patients)” value ([21]; Renal, 6 patients, only patients receiving lapatinib more than 4 months) was “SD = 2”, the “duration of CR” value ([21]; erbB1 overexpressing head and neck squamous cell carcinoma) was no less than 16 mos and the “CR (number of patients)” value ([21]; erbB1 overexpressing head and neck squamous cell carcinoma, 81 patients treated) was “One”. For the same compound, the “time remained on lapatinib, SD patient” value ([21]; non-small cell lung cancer) was no less than 12 mos, the “patients who experienced SD” value ([21]; various tumors most overexpressing either erbB1 or erbB2, 81 patients treated) was “Twenty-two” and the IC50 [22] was 1.49 µM. The IC50 [23] was 5.24 µM, the IC50 [24] was 3.34 µM and the IC50 [25] was 7.15 µM. It also gave an IC50 [26] of 5.48 µM, an IC50 [27] of 3.39 µM and an IC50 [28] of 9 µM. For the same compound, the “Clinical benefit (≧6 months SD)” value [29, 43] was 10%, the “PR confirmed at 8 weeks (number)” value [29, 43] was “one” and the “patients with progressive disease” value [29, 43] was 17%. The “patients with tumour reduction qualified as partial responses (PR) at the initial assessment” value [29, 43] was 10%, the “activity (in words)” value ([29]; second-line oral treatment) was “promising activity” and the IC50 [30] was 0.03 µM. It also gave an IC50 [31] of 3.63 µM, an IC50 [32] of 5.98 µM and an IC50 [33] of 0.23 µM. For the same compound, the IC50 [34] was 7.7 µM, the IC50 [35] was 4.7 µM and the IC50 [36] was 1.51 µM. It also gave an IC50 [37] of 6.45 µM, an IC50 [38] of 5.95 µM and an IC50 [39] of 11.5 µM.
For Nc1ccn([C@@H]2O[C@H](CO)[C@@H](O)C2(F)F)c(=O)n1 [gemcitabine], the “clinical benefit response (cancer-related symptoms)” value [1] is given as 23.8% and the overall survival [1] is given as 5.6 months.
